The source of these data is patent publication US20080051416A1, “Novel Compounds” (SMITHKLINE BEECHAM CORPORATION, priority 2004, published 2008).

Usually IC50 stands for the point on the concentration scale where inhibition reaches its midpoint. A word on the melting point: it is the temperature of the solid-liquid transition.

The target of one series is p38 (Homo sapiens, UniProt Q16539). Kind of series: Fluorescence Anisotropy Kinase Binding Assay. As to conditions: p38 enzyme 12 nM, fluorescent ligand 5 nM. The method, then:
Fluorescence Anisotropy Kinase Binding Assay
The concentration of kinase enzyme should preferably be ≧1×Kf. The concentration of fluorescent ligand required will depend on the instrumentation used, and the fluorescent and physicochemical properties. The concentration used must be lower than the concentration of kinase enzyme, and preferably less than half the kinase enzyme concentration. A typical protocol is:
All components dissolved in Buffer of final composition 62.5 mM HEPES, pH 7.5, 1.25 mM CHAPS, 1.25 mM DTT, 12.5 mM MgCl2 3.3% DMSO.
p38 Enzyme concentration: 12 nM
Fluorescent ligand concentration: 5 nM
Test compound concentration: 0.1 nM-100 uM
Components incubated in 30 ul final volume in NUNC 384 well black microtitre plate until equilibrium reached (5-30 mins)
Fluorescence anisotropy read in LJL Acquest.
Definitions: Ki=dissociation constant for inhibitor binding
• Kf=dissociation constant for fluorescent ligand binding
The fluorescent ligand is the following compound: [drawing 22] which is derived from 5-[2-(4-aminomethylphenyl)-5-pyridin-4-yl-1H-imidazol-4-yl]-2-chlorophenol and rhodamine green. Results

A further series has as its target T1, Recombinant human p38α (Homo sapiens, UniProt Q16539).
T1 construct: His; made in house
Briefly: HTRF Assay: Time-Resolved Fluorescence Resonance Energy Transfer Kinase Assay. Conditions: TR-FRET; MKK6-activated p38α 100 pM, biotinylated-GST-ATF2 substrate. The class given is biochemical. On the procedure: Time-Resolved Fluorescence Resonance Energy Transfer Kinase Assay
Recombinant human p38α was expressed as a His-tagged protein. To activate this protein, 3 μM unactivated p38α was incubated in 200 mM Hepes pH7.4, 625 mM NaCl, 1 mM DTT with 27 nM active MKK6 (Upstate), 1 mM ATP and 10 mM MgCl2. The activity of the MKK6-activated p38α was assessed using a time-resolved fluorescence resonance energy transfer (TR-FRET) assay.
Biotinylated-GST-ATF2 (residues 19-96, 400 nM final), ATP ([…] final) and MgCl2 (5 mM final) in assay buffer (40 mM HEPES pH 7.4, 1 mM DTT) were added to wells containing […] of various concentrations of compound or DMSO vehicle (3% final) in NUNC 384 well black plate. The reaction was initiated by the addition of MKK6-activated p38 (100 pM final) to give a total volume of 30 μl. Alternatively, various concentrations of compound were incubated with activated p38 for up to 90 min, followed by initiation with the addition of ATF2, ATP and MgCl2. The reaction was incubated for 120 minutes at room temperature, then terminated by the addition of 15 μl of 100 mM EDTA pH 7.4. Detection reagent (15 μl) in buffer (100 mM HEPES pH 7.4, 150 mM NaCl, 0.1% w/v BSA, 1 mM DTT) containing antiphosphothreonine-ATF2-71 polyclonal antibody (Cell Signalling Technology, Beverly Mass., USA) labelled with W-1024 europium chelate (Wallac OY, Turku, Finland), and APC-labelled streptavidin (Prozyme, San Leandro, Calif., USA) was added and the reaction was further incubated for 60 minutes at room temperature. The degree of phosphorylation of GST-ATF2 was measured using a Packard Discovery plate reader (Perkin-Elmer Life Sciences, Pangbourne, UK) as a ratio of specific 665 nm energy transfer signal to reference europium 620 nm signal. Differences in IC50 with or without preincubation of enzyme with compound was interpreted as time-dependence.
On the technique in general: TR-FRET usually uses a lanthanide donor and a delayed reading to cut background.

In series [1] the test system is TGF-β-induced increases in fibronectin and thrombospondin. As to conditions: literature, Laping et al., 2002; cited from earlier work.

T1 sequence (Q16539 whole entry): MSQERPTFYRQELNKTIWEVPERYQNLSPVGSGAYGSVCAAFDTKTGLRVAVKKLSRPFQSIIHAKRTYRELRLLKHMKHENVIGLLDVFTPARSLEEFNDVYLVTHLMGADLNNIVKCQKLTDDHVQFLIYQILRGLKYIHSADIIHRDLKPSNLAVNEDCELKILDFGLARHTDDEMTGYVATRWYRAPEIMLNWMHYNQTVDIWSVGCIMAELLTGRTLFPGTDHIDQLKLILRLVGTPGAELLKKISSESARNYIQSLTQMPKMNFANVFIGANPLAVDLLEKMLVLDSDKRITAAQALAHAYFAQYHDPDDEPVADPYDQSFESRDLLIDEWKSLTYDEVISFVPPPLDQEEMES
Sequence of p38 (Q16539 whole entry): as above

Consider `Cc1c(F)cc(C(=O)N[C@H](C)C(C)(C)C)cc1-c1ccc(C(=O)NCC(C)(C)C)cc1C(=O)Nc1nccs1` [Example 10, N^4-(2,2-dimethylpropyl)-5′-fluoro-6′-methyl-N^2-1,3-thiazol-2-yl-N^3′-[(1R)-1,2,2-trimethylpropyl]-2,3′,4-biphenyltricarboxamide], for which the melting point is > 125 °C (dec.). This compound showed an IC50 at p38 of over 1580 nM. Also, the IC50 at Recombinant human p38α is over 1580 nM.
The compound `Cc1c(F)cc(C(=O)N[C@@H](C)C(C)C)cc1-c1ccc(C(=O)NCC(C)(C)C)cc1C(=O)Nc1nccs1` [Example 12, N^3′-[(1S)-1,2-dimethylpropyl]-N^4-(2,2-dimethylpropyl)-5′-fluoro-6′-methyl-N^2-1,3-thiazol-2-yl-2,3′,4-biphenyltricarboxamide] gave a melting point of 234 to 239 °C. The IC50 at p38 was over 1580 nM. The IC50 at Recombinant human p38α is over 1580 nM.
On to `Cc1c(F)cc(C(=O)N[C@H](C)C(C)C)cc1-c1ccc(C(=O)NCC(C)(C)C)cc1C(=O)Nc1nccs1` [Example 13, N^3′-[(1R)-1,2-dimethylpropyl]-N4-(2,2-dimethylpropyl)-5′-fluoro-6′-methyl-N^2-1,3-thiazol-2-yl-2,3′,4-biphenyltricarboxamide], for which the melting point lay in the range of 240 to 244 °C. Moreover, the IC50 on p38 was over 1580 nM. Also, on Recombinant human p38α, the IC50 is over 1580 nM.
Consider `Cc1c(F)cc(C(=O)NCC(C)C)cc1-c1ccc(C(=O)NCC(C)(C)C)cc1C(=O)Nc1nccs1` [Example 14, N^4-(2,2-dimethylpropyl)-5′-fluoro-6′-methyl-N^3′-(2-methylpropyl)-N^2-1,3-thiazol-2-yl-2,3′,4-biphenyltricarboxamide], for which the melting point is > 194 °C (dec.).
In the case of `Cc1c(F)cc(C(=O)NCC2CC2)cc1-c1ccc(C(=O)NCC(C)(C)C)cc1C(=O)Nc1nccs1` [Example 15, N^3′-(cyclopropylmethyl)-N^4-(2,2-dimethylpropyl)-5′-fluoro-6′-methyl-N^2-1,3-thiazol-2-yl-2,3′,4-biphenyltricarboxamide], the melting point lay within 179 to 183 °C.
In turn, `Cc1c(F)cc(C(=O)NCCC(C)C)cc1-c1ccc(C(=O)NCC(C)(C)C)cc1C(=O)Nc1nccs1` [Example 16, N^4-(2,2-dimethylpropyl)-5′-fluoro-6′-methyl-N^3′-(3-methylbutyl)-N^2-1,3-thiazol-2-yl-2,3′,4-biphenyltricarboxamide] came in with a melting point of 159 to 164 °C.
`Cc1c(F)cc(C(=O)N[C@@H](C)C(C)(C)C)cc1-c1ccc(C(=O)NCC(C)(C)C)cc1C(=O)Nc1nccs1` [Example 25, N^4-(2,2-dimethylpropyl)-5′-fluoro-6′-methyl-N^2-1,3-thiazol-2-yl-N^3′-[(1S)-1,2,2-trimethylpropyl]-2,3′,4-biphenyltricarboxamide] gave a melting point of 160 to 165 °C. Moreover, on p38, the IC50 is over 1580 nM. In addition, at Recombinant human p38α, the IC50 is over 1580 nM.
Consider `Cc1c(F)cc(C(=O)N[C@H](C)CO)cc1-c1ccc(C(=O)NCC(C)(C)C)cc1C(N)=O` [Example 75, N^4-(2,2-dimethylpropyl)-5′-fluoro-N^3′-[(1R)-2-hydroxy-1-methylethyl]-6′-methyl-2,3′,4-biphenyltricarboxamide], for which the IC50 at p38 was over 15800 nM; on Recombinant human p38α, over 1580 nM.
The compound `COC(=O)c1cc(C(=O)NCC(C)(C)C)ccc1-c1cc(C(=O)NCCO)ccc1C` [Example 78, methyl 4-{[(2,2-dimethylpropyl)amino]carbonyl}-5′-{[(2-hydroxyethyl)amino]carbonyl}-2′-methyl-2-biphenylcarboxylate] had an IC50 at p38 of over 15800 nM.
On to `Cc1ccc(C(=O)NCCO)cc1-c1ccc(C(=O)NCC(C)(C)C)cc1C(=O)O` [Example 86, 4-{[(2,2-dimethylpropyl)amino]carbonyl}-5′-{[(2-hydroxyethyl)amino]carbonyl}-2′-methyl-2-biphenylcarboxylic acid], for which the results for the IC50 at p38 and at Recombinant human p38α were over 15800 nM and over 25100 nM, respectively.
Regarding `COc1nccc(-c2c(-c3ccc(F)cc3)ncn2C2CCNCC2)n1` [SB-242235], the “inhibition of TGF-β-induced increases in fibronectin and thrombospondin” value in series [1] was “inhibited”.
